The source of these data is patent US20050228041A1, “Protective and therapeutic uses for tocotrienols” (priority 2003, published 2005).

Assay [1] relates to primary rat immature cortical neurons. Kind of assay: Neurotoxin-induced loss of viability of primary immature cortical neurons (LDH leakage). The assay is classed as cell-based. The settings on record: glutamate 10 mM, 24 h; for protection against loss of neuronal viability by neurotoxins: L-homocysteic acid 1 mM, BSO 0.15 mM, BSO + arachidonic acid 0.05 mM, α-tocotrienol (nM) 5 min before. The method, then:
(§1) Referring to FIG. 1, primary rat immature cortical neurons (A-C) or HT4 (D) were either treated or not with α-tocotrienol (as indicated) for 5 min and challenged with either glutamate (10 mM; A); L-homocysteic acid (1 mM; B); or buthionine sulfoximine (0.15 mM; BSO) for 24 h. […] Cells were counted at 12, 24 and 36 h after glutamate challenge.
(§2) First, we tested for the involvement of 12-LOX in the execution of glutamate-induced death in our model. We started by using the 12-LOX specific inhibitor baicalein or BL15. Referring to FIG. 3, HT4 neurons (A) were either treated or not with a-tocotrienol (250 nM) or […] (2.5 μM, 12-lipoxygenase inhibitor) for 5 min and then challenged with glutamate (10 mM). Cell viability was determined using propidium iodide (PI) exclusion flow cytometry assay. PI−=live; PI+=dead. Rat primary immature cortical neurons (B-D) were either treated or not with α-tocotrienol (100 nM) or BL15 (2.5 μM) for 5 min and challenged either with glutamate (10 mM; B); L-homocysteic acid (1 mM; C) or buthionine sulfoximine (0.15 mM; BSO; D) for 24 h. Arachidonic acid, 50 μM for 24h. BL15, Baicalein 5,6,7-trihydroxy-flavone.
(§3) Cell culture. Mouse hippocampal HT4 cells, were grown in Dulbecco's Modified Eagle Medium supplemented with 10% fetal calf serum, penicillin (100 U/ml) and streptomycin (100 μg/ml) at 37° C. in a humidified atmosphere containing 95% air and 5% CO2. HT4 cells were provided by Dr. D. E. Koshland Jr. (University of California at Berkeley) (Sen et al., 2000). Primary cortical neurons. Cells were isolated from the cerebral cortex of rat feti (Sprague Dawley; day 17 of gestation) or mouse feti (C57BL/6 mice, day 14 of gestation) as described (Murphy et al., 1990). For 12-LOX knockout studies, neurons were isolated from the feti of B6.129S2-Alox15^tm1Fun (Jackson Laboratory, […].). After isolation from the brain, cells were counted and seeded in culture plates at a density of 2-3×10^6 cells per 35 mm plate (Murphy et al., 1990). Cells were grown in Minimal Essential Medium (MEM) supplemented with 10% heat-inactivated fetal bovine serum, 40 μM cystine and antibiotics (100 μg/ml streptomycin, 100 units/ml penicillin, 0.25 μg/ml amphotericin). Cultures were maintained at 37° C. in 5% CO2 and 95% air in a humidified incubator. All experiments were carried out 24 h after plating.
(§4) Treatment with neurotoxic agents. Immediately before experiments, culture media was replaced with fresh medium supplemented with serum and antibiotics. Glutamate (10 mM) was added to the media as aqueous solution (Han et al., 1997a; Sen et al., 2000; Tirosh et al., 2000). […] Other agents used to induce death in neuronal cells have been described in the pertinent figure legends.
(§5) Vitamin E treatment. Stock solutions (10^3X of working concentration) of α-tocotrienol was prepared in ethanol. […]
(§6) Determination of cell viability. Viability of HT4 cells was determined using propidium iodide exclusion assay using the flow cytometer as described by us previously (Sen et al., 2000; Tirosh et al., 2000). Because primary neuronal cultures tend to aggregate during flow cytometry, the viability of these cells was assessed by measuring lactate dehydrogenase (LDH) leakage (Han et al., 1997a) from cells to media 24 h following glutamate treatment using in vitro toxicology assay kit from Sigma Chemical Co. (St. Louis, Mo., USA). […]
For orientation: LDH leaks from cells whose membrane has failed.

For assay [2], the system named is HT4 neurons. Kind of assay: Glutamate-induced death of HT4 neurons (propidium iodide exclusion flow cytometry, cell counts). It counts as cell-based, mouse. The protocol:
as §1, §2, §3, §4, §5, §6

In the case of `CC(C)=CCC/C(C)=C/CC/C(C)=C/CC[C@]1(C)CCc2c(C)c(O)c(C)c(C)c2O1` [α-tocotrienol], the “protection against glutamate-induced death of primary neurons” value in assay [1] (α-tocotrienol 100 nM or BL15 2.5 μM 5 min before) is “protected neurons against glutamate challenge”. Besides, the figures for the “protection against loss of neuronal viability by neurotoxins” value in assay [1] and in assay [1] (listed as α-Tocotrienol) were “protects” and “total protection”, respectively. Moreover, the “protection against glutamate-induced toxicity / loss of cell viability of HT4” value in assay [2] (glutamate 10 mM, tocotrienol 100 nM (nM levels) 5 min before) is given as “protect against loss of cell viability”. Besides, the “proliferation / growth rate of glutamate-treated HT4 cells” value in assay [2] (tocotrienol 100 nM (nM levels), cells counted 12, 24 and 36 h after glutamate) was “preserve the normal growth rate”.
